Earlier results, collected in publication PMC6892276 (European Journal of Pharmaceutical Sciences, 2019).

How the values were obtained:
CYP3A4 = test system: CYP3A4; parameters: method as in Bavetsias et al., 2012; conditions: ref Bavetsias et al., 2012; read-out: CYP3A4 inhibition IC50; cited from earlier work
hERG = test system: hERG; parameters: method as in Bavetsias et al., 2012; conditions: ref Bavetsias et al., 2012; read-out: hERG blockade IC50; cited from earlier work

## Cc1nn(C)cc1-c1nc2c(N3CCN(Cc4ccc(Cl)cc4)CC3)c(Cl)cnc2[nH]1 [CCT241736, 6-Chloro-7-(4-(4-chlorobenzyl)piperazin-1-yl)-2-(1,3-dimethyl-1Hpyrazol-4-yl)-3H-imidazo[4,5-b] pyridine]
CYP3A4
  IC50: > 10 µM
hERG
  IC50: > 25 µM
